Results reported in PubChem BioAssay (NCI).
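Cells were grown in 96-well plates and exposed to each compound for 48 hours at five concentrations; endpoints were interpolated linearly between bracketing concentrations, or set to the highest concentration if not reached. TGI marks complete inhibition of growth.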

How the values were obtained:
Assay in all cases: NCI tumour cell line growth inhibition, 48 h
[1] = tested on: 786-0 renal
[2] = tested on: A549 NSCLC
[3] = tested on: ACHN renal
[4] = tested on: CAKI-1 renal
[5] = tested on: COLO 205 colon
[6] = tested on: DLD-1 colon
[7] = tested on: DMS 114 small cell lung
[8] = tested on: DMS 273 small cell lung
[9] = tested on: EKVX NSCLC
[10] = tested on: HCC-2998 colon
[11] = tested on: HCT-15 colon
[12] = tested on: HL-60(TB) leukemia
[13] = tested on: HOP-18 NSCLC
[14] = tested on: HOP-62 NSCLC
[15] = tested on: HOP-92 NSCLC
[16] = tested on: HT29 colon
[17] = tested on: IGROV1 ovarian
[18] = tested on: KM20L2 colon
[19] = tested on: LOX IMVI melanoma
[20] = tested on: LXFL 529 NSCLC
[21] = tested on: M14 melanoma
[22] = tested on: M19-MEL melanoma
[23] = tested on: MALME-3M melanoma
[24] = tested on: NCI-H23 lung
[25] = tested on: NCI-H460 lung
[26] = tested on: OVCAR-3 ovarian
[27] = tested on: OVCAR-4 ovarian
[28] = tested on: OVCAR-8 ovarian
[29] = tested on: RXF 393 renal
[30] = tested on: RXF-631 renal
[31] = tested on: SF-268 CNS
[32] = tested on: SF-295 CNS
[33] = tested on: SK-MEL-28 melanoma
[34] = tested on: SK-OV-3 ovarian
[35] = tested on: SN12C renal
[36] = tested on: SNB-75 CNS
[37] = tested on: SW-620 colon
[38] = tested on: TK-10 renal
[39] = tested on: U251 CNS
[40] = tested on: UACC-62 melanoma
[41] = tested on: UO-31 renal
[42] = tested on: XF 498 CNS
[43] = tested on: A498 renal
[44] = tested on: CCRF-CEM leukemia
[45] = tested on: HCT-116 colon
[46] = tested on: K-562 leukemia
[47] = tested on: KM12 colon
[48] = tested on: MOLT-4 leukemia
[49] = tested on: NCI-H226 lung
[50] = tested on: NCI-H522 lung
[51] = tested on: OVCAR-5 ovarian
[52] = tested on: RPMI-8226 leukemia
[53] = tested on: SF-539 CNS
[54] = tested on: SK-MEL-2 melanoma
[55] = tested on: SK-MEL-5 melanoma
[56] = tested on: SNB-19 CNS
[57] = tested on: SNB-78 CNS
[58] = tested on: SR leukemia
[59] = tested on: UACC-257 melanoma

Measured: TGI

O=C1CCC(=O)C12CCc1ccccc12
> 100 µM: [1] | [2] | [3] | [4] | [5] | [6] | [7] | [8] | [9] | [10] | [11] | [12] | [13] | [14] | [15] | [16] | [17] | [18] | [19] | [20] | [21] | [22] | [23] | [24] | [25] | [26] | [27] | [28] | [29] | [30] | [31] | [32] | [33] | [34] | [35] | [36] | [37] | [38] | [39] | [40] | [41] | [42]

CCn1cc(C(=O)O)c(=O)c2cc(F)c(N3CCNCC3)nc21
> 100 µM: [1] | [43] | [2] | [3] | [44] | [5] | [6] | [7] | [8] | [9] | [10] | [45] | [11] | [12] | [13] | [14] | [15] | [16] | [17] | [46] | [47] | [19] | [20] | [21] | [22] | [23] | [48] | [49] | [24] | [25] | [50] | [26] | [27] | [51] | [28] | [52] | [30] | [31] | [32] | [53] | [54] | [33] | [55] | [34] | [35] | [56] | [36] | [57] | [58] | [37] | [38] | [39] | [59] | [40] | [41]

OCC1C2C=CC(O2)[C@H]1CO (some centres not stated)
> 100 µM: [1] | [43] | [2] | [3] | [4] | [44] | [5] | [6] | [7] | [8] | [9] | [10] | [45] | [11] | [12] | [13] | [14] | [15] | [16] | [17] | [47] | [18] | [19] | [20] | [21] | [22] | [23] | [48] | [49] | [25] | [50] | [26] | [27] | [51] | [28] | [52] | [29] | [30] | [31] | [32] | [53] | [33] | [55] | [34] | [35] | [56] | [36] | [57] | [58] | [37] | [38] | [39] | [59] | [40] | [41]
